Data published in patent US20230406803A1, “TROPOLONE DERIVATIVES AND TAUTOMERS THEREOF FOR IRON REGULATION IN ANIMALS” (Kinesid Therapeutics, Inc, priority 2020, published 2023).

Legend:
[1] = Ligand facilitated Fe(III) efflux from liposomes; type: biochemical; design: unit not given here; details: efflux rate k at 10 μM ligand concentration; ferrozine absorbance 562 nm, 120 min kinetic read
Description: Assay 1: Ligand Facilitated Fe(III) Efflux from Liposomes
Preparation of POPC (1 palmitoyl-2-oleoyl-sn-glycero-3 phosphocholine): Cholesterol Liposomes
A 1M buffer solution of MES and Tris was prepared by dissolving 121.14 grams of Tris base and 213.25 grams of MES hydrate in 500 mL of MilliQ water and adjusted to pH7.0 using an […] HCl solution before bringing the total volume of the solution to 1 L. A 500 mM solution of FeCl3 was prepared by dissolving 0.811 grams of anhydrous FeCl3 in 10 mL of a 0.1M H2SO4 aqueous solution. Inside buffer is prepared in a 50 mL falcon tube, which was added with 25 mL of MilliQ water, 1.61 g of sodium citrate, 1.5 mL of the above FeCl3 solution, and 2.5 mL of the 1M MES/Tris HCl buffer (pH=7.0), and finally additional MilliQ H2O to bring to a 50 mL final volume.
Lipid solution is prepared by dissolving 206.9 mg of POPC (1-palmitoyl-2-oleoyl-sn-glycero-3-phosphocholine) and 8.6 mg of cholesterol in 10 mL of ethanol.
The lipids solution and the inside buffer solution are independently loaded into 10 mL luer lock syringes for loading into a virgin cartridge on a Precision Nanosystems NanoAssembler to prepare unilamaller liposomes with the following parameters: 7.5 mL total volume, 1.5:1 mixing ratio of inside buffer:lipids solution, 8 mL/min flow rate, ambient temperature, 0.35 mL start waste, and 0.05 mL of end waste. 7.5 mL of liposomes is harvested for purification on a 6-inch long, 1-inch diameter Sephadex G-50 column wetted in 600 mM sodium ascorbate and 50 mM MES/Tris HCl pH 7.0 buffer. This buffer also serves as the column running buffer. The crude liposome solution is carefully loaded with minimal volume of running buffer above the top of the Sphadex, allowed to enter the matrix, and the column is run with the continued addition of running buffer. The eluting liposomes, observed as a milky and turbid solution, are collected until free iron begins to elute (observed as a deep purple color) and the fractions are pooled for phosphorus quantitation.
Determination of Phosphorus Content:
Phosphorus content of eluted liposomes was determined by the process outlined below. 10 μL of liposome elution and a running buffer blank are added to a 5 mL glass vial containing 450 μL of a 8.9 M aqueous H2SO4 solution, the mixture is heated to 225° C. for 25 minutes in an aluminum heat block to hydrolyze POPC and cooled for 5 minutes. 200 μL of a 30% hydrogen peroxide aqueous solution is added to each vial and heated to 225° C. for 25 minutes. After cooling, the phosphorus content was determined using an Abcam Phosphate Assay kit, with buffer subtracted phosphorus levels determined against a standard curve of phosphate included in the kit. Liposomes were diluted to 1 mM phosphate in Running Buffer for use in assays after accounting for dilutions made during phospholipid digestion.
Determination of the Iron Transporting Rate Constant of the Ligands:
Determination of the rate at which a small molecule ligand liberates (transport) Ferric iron from liposomes is performed in clear bottom black 384-well plates on a Spectramax i3x set to read the absorbance at 562 nm in the kinetic mode every 60 seconds for 120 minutes. 1 μL of serially diluted DMSO stock solution of a small molecule ligand is added to wells in triplicate to give the final concentrations of 40, 20, 10, 5, 2.5, and 1.25 uM of the ligand at 80 μL final volume, followed by addition of 1 μL of 100 mM Ferrozine in water to give a final concentration of 1 mM ferrozine. 78 μL of liposomes diluted to 1 mM phosphorus in running buffer is added to wells as quickly as possible (using a digital repeater multichannel pipette) with the kinetic read initiated as rapidly as possible after addition of liposomes to all wells. Typically, eight compounds at six concentrations are tested in triplicate simultaneously. […]

[2] = system: DMT1-deficient Caco-2 cells; assay: shDMT1-Caco2 55Fe transport assay; type: cell-based; details: Caco-2
Source text: Assay 2: shDMT1-Caco2 ^55Fe Transport Assay to Assess Ligand Ability in Transporting Fe (III)
Cells: DMT1-deficient Caco-2 cells (alias: “shDMT1,” or “4A” cells) were from Grillo et al. Science, 2017, and were cryopreserved in liquid nitrogen prior to use.
Reagents and supplies: ^55FeCl3 was obtained from PerkinElmer (Boston, MA). Iron(III) chloride (FeCl3) hexahydrate was obtained from Sigma. Dulbecco's Modified Eagle Medium (DMEM), fetal bovine serum (FBS), L-glutamine, MEM nonessential amino acids, penicillin-streptomycin, G418, formic acid, methanol, high-purity water, ammonium formate, dimethyl sulfoxide (DMSO) were purchased from Fisher Scientific. Propranolol, atenolol and carbutamide were obtained from Sigma-Aldrich Chemical Company (St Louis, MO). Scintillation cocktail was obtained from Research Product International Co. (Mount Prospect, IL). Stericup filter system (PES membrane, 0.22 um pore size) was purchased from Fisher Scientific. Corning item #3378 24-well transwell insert plates.
Test articles: known compounds hinokitiol and deferiprone were purchased from Sigma. They are tested side by side with the small molecule ligands disclosed in this application. DMSO stocks (10 mM, which is 1,000× of the 10 μM dose level) of hinokitiol or test articles were prepared. A stock solution of 25 mM deferiprone in DMSO was prepared. The DMSO stock solutions were stored at −20° C. or below when not in use.
The growth medium was prepared according to the following table
Apical media (serum free DMEM, 10 mM MES, pH 6.5) was prepared. Apical master mix media was prepared fresh with the addition of 200 nM ^55Fe before each experiment. For the negative control propranolol and atenolol wells, 200 nM of non-radioactive iron was used.
The basolateral media was serum-free DMEM, 10 mM HEPES, 2% bovine serum albumin (BSA), pH 7.4.
For each experiment, cells were seeded into the 24-well transwell plates (0.5 mL of 50,000 cells/mL) with growth media. The basolateral companion plate was loaded with 1 mL of growth media. After 12-24 hr, both the apical and basolateral chamber were replaced with growth media. The apical media was changed 3× per week for 21-28 days, including a media change exactly 48 hr before the assay date.
On the assay day, the TEER values were measured and the average TEER value was obtained. Individual wells with TEER value >35% lower than the average of all wells were excluded. For the qualified wells, the apical layer (twice) and basolaterial (once) chambers were washed with PBS. The basolateral companion plate was then filled with 1 mL of basolateral media. Via addition down the side-wall of the apical well, 300 μL per well of the apical assay master mix, with the indicated dose level of test article, was added. Each dose was tested in triplicate. The plates were incubated (5% CO2 and 90% humidity at 37° C.) for the indicated timepoints. At each indicated timepoint, the basolateral supernatant was gently mixed via pipetting, and 200 μL of the basolateral supernatant was transferred to scintillation vials. To each scintillation counting vial, 5 mL of scintillation cocktail fluid was added. For each scintillation vial, the radioactivity (CPM) was determined with liquid scintillation counter LS6500. The counting time per vial was 5 min.
All raw CPM values are divided by the average value of blank DMSO solution to give a fold of change above the DMSO value. The mean and standard deviation of each compound at each concentration level and at each time point measured was calculated to give the fold change (fc) value. For rank order compounds, the fc value of a ligand at 4 h time point is further divided by the fold change (fc) value of hinokitiol (a positive control compound) at an equimolar concentration to arrive at the FC (normalized fold of change) value. Data reported in Tables 1 and 2 is 4 hr time point FC=fc-ligand @ 3 uM/fc-hino @ 3 μM, and FC hino=1.

## O=c1cccc(O[C@@H]2CCOC2)cc1O (stereo in doubt)
[1]
  Liposome Fe transport kefflux at 10 μM: 0.1-5
[2]
  Caco2 shDMT1 transport FC @ 3 μM, 4 h: 0.01-0.5

## Cc1ccc(C)c(=O)c(O)c1
[1]
  Liposome Fe transport kefflux at 10 μM: 0.1-5
[2]
  Caco2 shDMT1 transport FC @ 3 μM, 4 h: 1-5

## O=c1ccc(C2CCCO2)ccc1O (centres unmarked)
[1]
  Liposome Fe transport kefflux at 10 μM: 7.5-10
[2]
  Caco2 shDMT1 transport FC @ 3 μM, 4 h: 0.01-0.5

## O=c1ccccc([C@H]2CCCO2)c1O
[1]
  Liposome Fe transport kefflux at 10 μM: 7.5-10
[2]
  Caco2 shDMT1 transport FC @ 3 μM, 4 h: 0.1-5

## CC(C)Oc1cccc(=O)c(O)c1
[1]
  Liposome Fe transport kefflux at 10 μM: 5-7.5
[2]
  Caco2 shDMT1 transport FC @ 3 μM, 4 h: 0.5-1

## O=c1c(O)cc(C2CC2)ccc1F [drawing 209]
[1]
  Liposome Fe transport kefflux at 10 μM: 7.5-10
[2]
  Caco2 shDMT1 transport FC @ 3 μM, 4 h: 0.01-0.5

## Cc1c(C2CC2)cccc(=O)c1[O-].[Na+]
[1]
  Liposome Fe transport kefflux at 10 μM: 0.1-5
[2]
  Caco2 shDMT1 transport FC @ 3 μM, 4 h: 0.5-1

## O=c1cccc(OC2COC2)cc1O
[1]
  Liposome Fe transport kefflux at 10 μM: 0.1-5
[2]
  Caco2 shDMT1 transport FC @ 3 μM, 4 h: 0.01-0.5

## CCc1cccc(C)c(=O)c1O [drawing 202]
[1]
  Liposome Fe transport kefflux at 10 μM: 5-7.5
[2]
  Caco2 shDMT1 transport FC @ 3 μM, 4 h: 0.01-0.5

## CC(C)c1ccc(F)c(=O)c(O)c1 [drawing 176]
[1]
  Liposome Fe transport kefflux at 10 μM: 10-25
[2]
  Caco2 shDMT1 transport FC @ 3 μM, 4 h: 0.01-0.5

## Cc1c(O)c(=O)ccn1C [deferiprone, reference compound]
[1]
  Liposome Fe transport kefflux at 10 μM: 0
[2]
  Caco2 shDMT1 transport FC @ 3 μM, 4 h: 0.02-0.03

## O=c1c(O)ccccc1F
[1]
  Liposome Fe transport kefflux at 10 μM: 0.1-5
[2]
  Caco2 shDMT1 transport FC @ 3 μM, 4 h: 0.01-0.5

## Cc1ccc(O)c(=O)c(C)c1
[1]
  Liposome Fe transport kefflux at 10 μM: 5-7.5
[2]
  Caco2 shDMT1 transport FC @ 3 μM, 4 h: 1-5

## O=c1ccccc(OCC2CC2)c1O [drawing 260]
[1]
  Liposome Fe transport kefflux at 10 μM: 10-25
[2]
  Caco2 shDMT1 transport FC @ 3 μM, 4 h: 1-5

## O=c1cccc(C2CCCO2)cc1O (centres unmarked)
[1]
  Liposome Fe transport kefflux at 10 μM: 7.5-10
[2]
  Caco2 shDMT1 transport FC @ 3 μM, 4 h: 0.01-0.5

## Cc1ccc(O)c(=O)c(C(F)(F)F)c1
[1]
  Liposome Fe transport kefflux at 10 μM: 10-25
[2]
  Caco2 shDMT1 transport FC @ 3 μM, 4 h: 0.01-0.5

## O=c1cccc(C2CC3CCC(C2)O3)cc1O (centres unmarked) [drawing 181]
[1]
  Liposome Fe transport kefflux at 10 μM: 7.5-10
[2]
  Caco2 shDMT1 transport FC @ 3 μM, 4 h: 0.01-0.5

## CCc1ccc(O)c(=O)c(F)c1
[1]
  Liposome Fe transport kefflux at 10 μM: 0.1-5
[2]
  Caco2 shDMT1 transport FC @ 3 μM, 4 h: 0.01-0.5

## CCc1cc(F)ccc(=O)c1O
[1]
  Liposome Fe transport kefflux at 10 μM: 7.5-10
[2]
  Caco2 shDMT1 transport FC @ 3 μM, 4 h: 1-5

## O=c1ccc(C2CC3CC3C2)ccc1O (centres unmarked)
[1]
  Liposome Fe transport kefflux at 10 μM: 5-7.5
[2]
  Caco2 shDMT1 transport FC @ 3 μM, 4 h: 0.01-0.5

## O=c1cccc(C2CCOCC2)cc1O
[1]
  Liposome Fe transport kefflux at 10 μM: 10-25
[2]
  Caco2 shDMT1 transport FC @ 3 μM, 4 h: 0.01-0.5

## O=c1ccc(OC2CCC2)ccc1O
[1]
  Liposome Fe transport kefflux at 10 μM: 10-25
[2]
  Caco2 shDMT1 transport FC @ 3 μM, 4 h: 1-5

## Cc1ccc(O)c(=O)c(F)c1
[1]
  Liposome Fe transport kefflux at 10 μM: 0.1-5
[2]
  Caco2 shDMT1 transport FC @ 3 μM, 4 h: 0.01-0.5

## O=c1ccccc(OC2CC3(CC3)C2)c1O [drawing 259]
[1]
  Liposome Fe transport kefflux at 10 μM: 10-25
[2]
  Caco2 shDMT1 transport FC @ 3 μM, 4 h: 1-5

## CC(C)c1ccc(F)c(=O)c(O)c1F
[1]
  Liposome Fe transport kefflux at 10 μM: 7.5-10
[2]
  Caco2 shDMT1 transport FC @ 3 μM, 4 h: 0.01-0.5

## O=c1ccccc(C2CCCO2)c1O (centres unmarked)
[1]
  Liposome Fe transport kefflux at 10 μM: 10-25
[2]
  Caco2 shDMT1 transport FC @ 3 μM, 4 h: 1-5

## O=c1ccccc(OC2CC(F)(F)C2)c1O
[1]
  Liposome Fe transport kefflux at 10 μM: 7.5-10
[2]
  Caco2 shDMT1 transport FC @ 3 μM, 4 h: 1-5

## CCOc1ccc(O)c(=O)cc1
[1]
  Liposome Fe transport kefflux at 10 μM: 7.5-10
[2]
  Caco2 shDMT1 transport FC @ 3 μM, 4 h: 0.01-0.5
